Measured values as given in patent US9670204B2, “Compounds and pharmaceutical compositions thereof for the treatment of inflammatory disorders” (Galapagos NV, priority 2013, dated 2017).

Assays:
[1] = molecular target: T1, hENPP2 (UniProtKB/SwissProt Q13822) (Homo sapiens (Human), UniProt Q13822); assay: fluorescent hENPP2 biochemical assay, FS-3 as substrate; details: read-out: FS3-IC50
Method in brief: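 hENPP2 in 50 mM Tris-HCl pH 8.0, 250 mM NaCl, 5 mM KCl, 1 mM MgCl2, 1 mM CaCl2, 0.1% fatty-acid-free BSA, preincubated with compound 30 min at room temperature. The 0.75 μM FS-3 solution was added and the mixture incubated 30 min at 30° C. Fluorescence (ex 485/em 520 nm) gives IC50.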

[2] = molecular target: T1, hENPP2; assay: hENPP2 biochemical assay, LPC as substrate; details: LPC (palmitoyl 16:0) as substrate
Method in brief: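 Human ENPP2 in 50 mM Tris-HCl pH 8.5, 500 mM NaCl, 5 mM KCl, 10 mM CaCl2, 0.1% fatty-acid-free BSA, reacted 30 min at 37 °C with LPC 16:0 (150 µM solution added 1:1). Released choline measured via choline oxidase/peroxidase/TOOS/4-aminoantipyrine quinoneimine dye at 555 nm; IC50 reported.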

IC50 [1] [nM]	IC50 [2] [nM]	LPC-IC50 [2]	SMILES
0.01 to 100	> 1000	–	CCc1nc2ccc(N3CCCCS3(=O)=O)cn2c1N(C)c1nc(-c2ccc(Cl)cc2)cs1 [Compound 207, 2-(2-ethyl-4-((4-(4-chlorophenyl)thiazol-2-yl)(methyl)amino)imidazo[1,2-a]pyridin-6-yl)-1-[1,2]thiazinane-1,1-dioxide]
0.01 to 100	> 1000	–	CCc1nc2ccc(C3=CCN(C(=O)Nc4cccs4)CC3)cn2c1N(C)c1nc(-c2ccc(F)cc2)cs1 [Compound 208, 4-(2-ethyl-3-((4-(4-fluorophenyl)thiazol-2-yl)(methyl)amino)imidazo[1,2-a]pyridin-6-yl)-N-(thiophen-2-yl)-5,6-dihydropyridine-1(2H)-carboxamide]
0.01 to 100	> 1000	–	CCc1nc2ccc(C3=CCN(S(C)(=O)=O)CC3)cn2c1N(C)c1nc(-c2ccc(Cl)cc2)cs1 [Compound 209, 4-(4-chlorophenyl)-N-(2-ethyl-6-(1-(methylsulfonyl)-1,2,3,6-tetrahydropyridin-4-yl)imidazo[1,2-a]pyridin-3-yl)-N-methylthiazol-2-amine]
0.01 to 100	> 1000	–	CCc1nc2ccc(C3=CCN(S(=O)(=O)C(F)(F)F)CC3)cn2c1N(C)c1nc(-c2ccc(Cl)cc2)cs1 [Compound 210, 4-(4-chlorophenyl)-N-(2-ethyl-6-(1-(trifluoromethylsulfonyl)-1,2,3,6-tetrahydropyridin-4-yl)imidazo[1,2-a]pyridin-3-yl)-N-methylthiazol-2-amine]
0.01 to 100	> 1000	–	CCc1nc2ccc(C3=CCN(C(=O)OC(C)(C)C)CC3)cn2c1N(C)c1nc(-c2ccc(F)cc2)cs1 [Compound 214, tert-butyl 4-(2-ethyl-3-((4-(4-fluorophenyl)thiazol-2-yl)(methyl)amino)imidazo[1,2-a]pyridin-6-yl)-5,6-dihydropyridine-1(2H)-carboxylate]
0.01 to 100	> 1000	–	CCc1nc2ccc(C3=CCOCC3)cn2c1N(C)c1nc(-c2ccc(F)cc2)cs1 [Compound 220, N-(6-(3,6-dihydro-2H-pyran-4-yl)-2-ethylimidazo[1,2-a]pyridin-3-yl)-4-(4-fluorophenyl)-N-methylthiazol-2-amine]
0.01 to 100	> 1000	–	CCc1nc2ccc(C3=CCOCC3)cn2c1N(C)c1nc(-c2ccc(Cl)cc2)cs1 [Compound 221, 4-(4-chlorophenyl)-N-(6-(3,6-dihydro-2H-pyran-4-yl)-2-ethylimidazo[1,2-a]pyridin-3-yl)-N-methylthiazol-2-amine]
0.01 to 100	–	not active	CCc1nc2ccc(C3=CCN(S(=O)(=O)CCCCl)CC3)cn2c1N(C)c1nc(-c2ccc(F)cc2)cs1 [Compound 233, N-(6-(1-(3-chloropropylsulfonyl)-1,2,3,6-tetrahydropyridin-4-yl)-2-ethylimidazo[1,2-a]pyridin-3-yl)-4-(4-fluorophenyl)-N-methylthiazol-2-amine]

Second part, the compound before the results:

SMILES	IC50 [1] [nM]	IC50 [2] [nM]	LPC-IC50 [2]
CCc1nc2ccc(N3CCN(C(=O)C(C)=O)CC3)cn2c1N(C)c1nc(-c2ccc(F)cc2)cs1 [Compound 200, 1-(4-(2-ethyl-3-((4-(4-fluorophenyl)thiazol-2-yl)(methyl)amino)imidazo[1,2-a]pyridin-6-yl)piperazin-1-yl)propane-1,2-dione]	0.01 to 100	> 1000	–
CCc1nc2ccc(N3CCN(C(=O)C4CCC(=O)N4)CC3)cn2c1N(C)c1nc(-c2ccc(F)cc2)cs1 (stereo not drawn) [Compound 201, 5-(4-(2-ethyl-3-((4-(4-fluorophenyl)thiazol-2-yl)(methyl)amino)imidazo[1,2-a]pyridin-6-yl)piperazine-1-carbonyl)pyrrolidin-2-one]	0.01 to 100	> 1000	–
CCc1nc2ccc(N3CCN(C(=O)C(N)=O)CC3)cn2c1N(C)c1nc(-c2ccc(F)cc2)cs1 [Compound 204, 2-(4-(2-ethyl-3-((4-(4-fluorophenyl)thiazol-2-yl)(methyl)amino)imidazo[1,2-a]pyridin-6-yl)piperazin-1-yl)-2-oxoacetamide]	0.01 to 100	> 1000	–
CCc1nc2ccc(N3CCC(O)CC3)cn2c1N(C)c1nc(-c2ccc(F)cc2)cs1 [Compound 211, 1-(2-ethyl-3-((4-(4-fluorophenyl)thiazol-2-yl)(methyl)amino)imidazo[1,2-a]pyridin-6-yl)piperidin-4-ol]	0.01 to 100	> 1000	–
CCC(=O)N1CCC(c2ccc3nc(CC)c(N(C)c4nc(-c5ccc(F)cc5)cs4)n3c2)CC1 [Compound 215, 1-(4-(2-ethyl-3-((4-(4-fluorophenyl)thiazol-2-yl)(methyl)amino)imidazo[1,2-a]pyridin-6-yl)piperidin-1-yl)propan-1-one]	0.01 to 100	100 to 500	–
CCc1nc2ccc(C3CCNCC3)cn2c1N(C)c1nc(-c2ccc(F)cc2)cs1 [Compound 216, N-(2-ethyl-6-(piperidin-4-yl)imidazo[1,2-a]pyridin-3-yl)-4-(4-fluorophenyl)-N-methylthiazol-2-amine]	0.01 to 100	> 1000	–
CCc1nc2ccc(C3CCN(Cc4ccccc4)CC3)cn2c1N(C)c1nc(-c2ccc(F)cc2)cs1 [Compound 217, [6-(1-Benzyl-piperidin-4-yl)-2-ethyl-imidazo[1,2-a]pyridin-3-yl]-[4-(4-fluoro-phenyl)-thiazol-2-yl]-methyl-amine]	0.01 to 100	> 1000	–
CCc1nc2ccc(C3CCN(C(C)C)CC3)cn2c1N(C)c1nc(-c2ccc(F)cc2)cs1 [Compound 218, N-(2-ethyl-6-(1-isopropylpiperidin-4-yl)imidazo[1,2-a]pyridin-3-yl)-4-(4-fluorophenyl)-N-methylthiazol-2-amine]	0.01 to 100	> 1000	–
CCc1nc2ccc(C3CCN(C(=O)OC(C)(C)C)CC3)cn2c1N(C)c1nc(-c2ccc(F)cc2)cs1 [Compound 219, tert-butyl 4-(2-ethyl-3-((4-(4-fluorophenyl)thiazol-2-yl)(methyl)amino)imidazo[1,2-a]pyridin-6-yl)piperidine-1-carboxylate]	0.01 to 100	> 1000	–
CCc1nc2ccc(C3CCN(S(C)(=O)=O)CC3)cn2c1N(C)c1nc(-c2ccc(F)cc2O)cs1 [Compound 224, 2-(2-((2-ethyl-6-(1-(methylsulfonyl)piperidin-4-yl)imidazo [1,2-a]pyridin-3-yl)(methyl)amino)thiazol-4-yl)-5-fluorophenol]	0.01 to 100	> 1000	–
CCc1nc2ccc(N3CCN(C(=O)OC(C)(C)C)CC3)cn2c1N(C)c1nc(-c2ccc(Cl)cc2)ns1 [Compound 225, tert-butyl 4-(3-((3-(4-chlorophenyl)-1,2,4-thiadiazol-5-yl)(methyl)amino)-2-ethylimidazo[1,2-a]pyridin-6-yl) piperazine-1-carboxylate]	0.01 to 100	> 1000	–
CCc1nc2ccc(N3CCN(C(=O)C4CC4)CC3)cn2c1N(C)c1nc(-c2ccc(F)cc2)cs1 [Compound 227, Cyclopropyl-[4-(2-ethyl-3-{[4-(4-fluoro-phenyl)-thiazol-2-yl]-methyl-amino}-imidazo[1,2-a]pyridin-6-yl)-piperazin-1-yl]-methanone]	0.01 to 100	> 1000	–
CCc1nc2ccc(N3CCCS3(=O)=O)cn2c1N(C)c1nc(-c2ccc(F)cc2)cs1 [Compound 229, [6-(1,1-Dioxo-isothiazolidin-2-yl)-2-ethyl-imidazo[1,2-a]pyridin-3-yl]-[4-(4-fluoro-phenyl)-thiazol-2-yl]-methyl-amine]	100 to 500	> 1000	–
